Consider nine molecules from patent US9700546B2, “Trivalent chromium compounds, compositions and methods of use” (INTERHEALTH NUTRACEUTICALS, INC., priority 2006, dated 2017).

Like-named read-outs stand apart in the source and are kept apart here.

One data set has as its system yeast. The note with it: Cooper et al. 1984; cited from earlier work.
Data set [1] relates to Obese Zucker rats. Put plainly: In vivo assessment in obese Zucker rats: body weight and food intake. The note with it: obese Zucker rats, daily 400 μg Cr(III)/kg, mean; for Food Intake 5 wks: at 5 weeks; for Food Intake 7 wks: at 7 weeks.
In data set [2] the test system is Obese Zucker rats. The following applies: rat, in vivo.
The subject of data set [3] is Obese Zucker rats. Put plainly: In vivo assessment in obese Zucker rats: vascular inflammation markers (MCP-1, CRP, RBP-4, leptin, ICAM, adiponectin). The note with it: obese Zucker rats, daily 400 μg Cr(III)/kg, 8 weeks, mean; for Adiponectin / CRP / ICAM / MCP-1: plasma, ELISA.
For data set [4], the system named is Obese Zucker rats. The data set is described as follows: In vivo assessment in obese Zucker rats: other vascular inflammation markers (cAMP, TNFα, IL-6, OxyDNA). The note with it: obese Zucker rats, daily 400 μg Cr(III)/kg, 8 weeks, mean ± SE; for OxyDNA: oxidative DNA damage.
The test system of data set [5] is Obese Zucker rats. Put plainly: In vivo assessment in obese Zucker rats: key biological parameters (fasting glucose, HbA1c, vitamin C, GSH, RBC lipid peroxidation). The following applies: obese Zucker rats, daily 400 μg Cr(III)/kg, 8 weeks, mean; for RBC Lipid Peroxidase: malondialdehyde by thiobarbituric acid; for Fasting Glucose: fasted overnight; for Vitamin C: plasma.

The test system of data set [6] is Obese Zucker rats. Put plainly: In vivo assessment in obese Zucker rats: blood lipid profile (total cholesterol, triglycerides, HDL). The note with it: daily 400 μg Cr(III)/kg, 8 weeks, mean.
Data set [7] relates to Obese Zucker rats. The data set is described as follows: In vivo assessment in obese Zucker rats: clinical chemistry (AP, BUN, CRT, AST, ALT). The following applies: obese Zucker rats; mean ± SE.
The next data set relates to insulin. The note with it: in vitro; cited from earlier work.
For data set [8] the following is noted: typical; cited from earlier work.
The conditions of data set [9]: cited from earlier work; for chromium absorbed (average): men and women.

For the molecule `NC(C[S-])C(=O)[O-].NC(C[S-])C(=O)[O-].[Cr+3]` (stereo not drawn) [Cr(cysteine)2^−], in the data set on yeast, the “glucose tolerance factor activity in yeast assay” value (“glucose tolerance factor activity” for short) is on record as “not active”.
In the case of `NC(=O)CCC(N)C(=O)[O-].NC(=O)CCC(N)C(=O)[O-].O.O.[Cr+3]` (stereo not drawn) [Cr(glutamine)2(H2O)2^+], the “glucose tolerance factor activity” value with yeast was “significant activity”.
For `N[C@@H](CS)C(=O)O` [Cys, Cysteine, reference compound], in the data set on Obese Zucker rats [1], the “Food Intake 5 wks” value is given as 39.40 g/day and the “Food Intake 7 wks” value came out at 39.87 g/day. Besides, in the data set with Obese Zucker rats [2], the “ALT (Alanine Aminotransferease)” value is on record as 119.20 u/L, the “AP (Alkaline phosphatase)” value was determined as 36.40 u/L, the “AST (Aspartate Aminotransferase)” value amounted to 218.20 u/L and the “BUN (Blood Urea Nitrogen)” value was determined as 18.50 mg/dL. In the data set with Obese Zucker rats [2], the “CRT (Creatinine)” value amounted to 0.42 mg/dL and the “Total Bilirubin” value amounted to 0.00 mg/dL. In the data set on Obese Zucker rats [3], this molecule returned a Leptin of 477.65 pg/mL, an RBP-4 of 50915.00 ng/mL, an Adiponectin of 11532.37 ng/mL and a CRP of 551.39 ng/mL. Also, in the data set on Obese Zucker rats [3], the ICAM was 18512.88 pg/mL. Moreover, in the data set on Obese Zucker rats [4], the IL-6 amounted to 95.33 ± 2.33 pg/mL, the TNFα is 24.28 ± 3.84 pg/mL, the cAMP is 32.94 ± 1.79 pmol/mL and the OxyDNA is given as 54.56 ± 5.69 ng/mL. In addition, in the data set on Obese Zucker rats [5], the “RBC Lipid Peroxidase” value came out at 2.34 nmol/mL, the “Fasting Glucose” value is 483.49 mg/dL, the GSH stood at 4.70 µmol/g and the HbA1c is given as 15.17%. Moreover, the “Vitamin C” value in the data set on Obese Zucker rats [5] amounted to 0.13 mg %. Besides, in the data set on Obese Zucker rats [6], the HDL worked out at 68.26 mg/dL, the “Total Cholesterol” value stood at 183.58 mg/dL and the Triglyceride amounted to 503.57 mg/dL.
With `O=C(O)c1cccnc1` [Niacin, reference compound], in the data set on Obese Zucker rats [1], the “Food Intake 5 wks” value is on record as 37.92 g/day and the “Food Intake 7 wks” value amounted to 39.67 g/day. Moreover, in the data set on Obese Zucker rats [3], the Leptin is 363.96 pg/mL, the RBP-4 was determined as 53945.00 ng/mL, the Adiponectin came to 8872.00 ng/mL and the CRP amounted to 548.27 ng/mL. Besides, in the data set on Obese Zucker rats [3], the ICAM is on record as 16855.83 pg/mL and the MCP-1 amounted to 1365.66 pg/mL. Besides, in the data set on Obese Zucker rats [4], the IL-6 was 93.76 ± 1.60 pg/mL, the cAMP is listed as 34.27 ± 1.47 pmol/mL and the OxyDNA is 47.31 ± 2.78 ng/mL. Besides, in the data set with Obese Zucker rats [7], the “ALT (Alanine Aminotransferease)” value is on record as 126.17 u/L, the “BUN (Blood Urea Nitrogen)” value is on record as 19.33 mg/dL and the “CRT (Creatinine)” value came out at 0.40 mg/dL. For the same molecule, in the data set with Obese Zucker rats [5], the “RBC Lipid Peroxidase” value is given as 1.82 nmol/mL, the “Fasting Glucose” value is 543.00 mg/dL, the GSH came out at 5.32 µmol/g and the HbA1c amounted to 15.60%. Also, the “Vitamin C” value in the data set with Obese Zucker rats [5] stood at 0.15 mg %. Besides, in the data set with Obese Zucker rats [6], the HDL turned out to be 70.33 mg/dL, the “Total Cholesterol” value is given as 192.17 mg/dL and the Triglyceride is reported as 486.67 mg/dL. Further, in the data set on insulin, the “potentiation of the action of insulin” value is listed as “virtually no effect”.
In the case of `[Cl][Cr]([Cl])[Cl]` [chromium chloride], the “absorbed by the body” value in [8] is reported as “less than one”. Further, the “chromium absorbed (average)” value in [9] is 0.4 µg.
In the data set with Obese Zucker rats [3], “Chromium Histidinate [CrHis, reference compound]” yielded a Leptin of 436.96 pg/mL, an RBP-4 of 51112.60 ng/mL, an Adiponectin of 11455.87 ng/mL and a CRP of 710.26 ng/mL. Also, the MCP-1 in the data set with Obese Zucker rats [3] is 2974.79 pg/mL. In the data set on Obese Zucker rats [4], this molecule showed an IL-6 of 91.98 ± 8.19 pg/mL, a TNFα of 24.72 ± 5.24 pg/mL, a cAMP of 28.07 ± 2.83 pmol/mL and an OxyDNA of 57.72 ± 2.86 ng/mL. Also, in the data set with Obese Zucker rats [7], the “ALT (Alanine Aminotransferease)” value amounted to 168.25 u/L, the “AP (Alkaline phosphatase)” value is 35.25 u/L, the “AST (Aspartate Aminotransferase)” value worked out at 248.00 u/L and the “Anion Gap” value came to 29.75. In the data set on Obese Zucker rats [7], the “BUN (Blood Urea Nitrogen)” value came out at 19.50 mg/dL, the “BUN/CRT Ratio” value was 48.75, the “CRT (Creatinine)” value is 0.40 mg/dL and the “Total Bilirubin” value was 0.10 mg/dL. In the data set on Obese Zucker rats [5], the “RBC Lipid Peroxidase” value is recorded as 1.91 nmol/mL, the “Fasting Glucose” value was 592.01 mg/dL, the GSH came to 4.68 µmol/g and the HbA1c came to 15.89%. For the same molecule, the “chromium absorbed (average)” value in data set [9] is 3.1 µg. Besides, in data set [9] (relative to chromium picolinate), the “absorbed better than chromium picolinate” value was “at least 50%”. In the data set with Obese Zucker rats [6], the HDL was found to be 66.90 mg/dL, the “Total Chol/HDL” value stood at 2.86 ratio, the “Total Cholesterol” value was 189.62 mg/dL and the Triglyceride worked out at 503.93 mg/dL.
For “Chromium Picolinate [CrP, reference compound]”, in the data set with Obese Zucker rats [1], the “Food Intake 5 wks” value is 35.85 g/day and the “Food Intake 7 wks” value is 40.79 g/day. In the data set on Obese Zucker rats [2], the “ALT (Alanine Aminotransferease)” value came out at 179.78 u/L, the “AP (Alkaline phosphatase)” value amounted to 40.06 u/L, the “AST (Aspartate Aminotransferase)” value is recorded as 362.44 u/L and the “Anion Gap” value was 29.61. In addition, in the data set with Obese Zucker rats [2], the “BUN (Blood Urea Nitrogen)” value stood at 20.22 mg/dL, the “BUN/CRT Ratio” value was 49.72, the “CRT (Creatinine)” value worked out at 0.41 mg/dL and the “Total Bilirubin” value is 0.07 mg/dL. In the data set on Obese Zucker rats [3], this molecule yielded a Leptin of 399.55 pg/mL, an RBP-4 of 49236.91 ng/mL, an Adiponectin of 11229.84 ng/mL and a CRP of 654.78 ng/mL. In the data set with Obese Zucker rats [3], this molecule registered an ICAM of 20428.47 pg/mL and an MCP-1 of 4549.99 pg/mL. In the data set with Obese Zucker rats [4], this molecule came in with an IL-6 of 94.13 ± 2.47 pg/mL, a TNFα of 33.66 ± 5.27 pg/mL, a cAMP of 29.17 ± 2.00 pmol/mL and an OxyDNA of 49.02 ± 2.31 ng/mL. For the same molecule, in the data set with Obese Zucker rats [5], the “RBC Lipid Peroxidase” value came out at 2.05 nmol/mL, the “Fasting Glucose” value came out at 527.28 mg/dL, the GSH turned out to be 4.84 µmol/g and the HbA1c was determined as 15.54%. In addition, in the data set with Obese Zucker rats [5], the “Vitamin C” value came to 0.15 mg %. Besides, in data set [9], the “chromium absorbed (average)” value was 1.8 µg. In addition, in the data set with Obese Zucker rats [6], the HDL was determined as 66.01 mg/dL, the “Total Chol/HDL” value is 3.02 ratio, the “Total Cholesterol” value turned out to be 191.80 mg/dL and the Triglyceride was determined as 625.35 mg/dL.
Cr-nicotinic acid-glycine: the “glucose tolerance factor activity” value in the data set with yeast is reported as “significant activity”.
In the case of chromium polynicotinate, in data set [9], the “chromium absorbed (average)” value is 0.2 µg.
